How the values were obtained:
[1] = Forced degradation samples analysed by prototype HPLC method; assay type: physicochemical
Experimental: A new prototype HPLC method has been developed to study early eluting peaks not well separated by the method described in Example 3, Table 3. The method better separates early eluting brimonidine-related impurities. All sample solutions from the Phase I and II stress studies were analyzed with the prototype method. […] This was consistent with the analysis results per the method described in Example 4, Table 6. Another unknown impurity, impurity B, was also observed in the chromatogram for the 0.1 M NaOH and heat-stressed combined API sample at RT 3.44 min with a level of ~0.05% relative to the brimonidine peak area. The extracted UV spectrum for impurity B is consistent with the UV Spectrum previously observed in stability samples.

[2] = Forced degradation of combined brimonidine tartrate and carbachol APIs, LC-PDA analysis; assay type: physicochemical; conditions: 66 hours
Experimental: Following the procedures shown in Table 9, the two APIs combined were stressed with moisture and heat (Sample A), 0.1 M HCl at room temperature (Sample B), 0.1 M NaOH at room temperature (Sample C), vehicle and heat (Sample D), 1 M HCl at room temperature (Sample E), and 1 M NaOH at room temperature (Sample F) for 66 hours. A drug product vehicle was stressed under heat for 66 hours as a control (Sample G). After the stress treatment was completed, all samples were removed from condition, allowed to cool to room temperatures, then neutralized where appropriate, and brought to a similar concentration level. The samples were capped and shaken until all the materials in each sample were dissolved. Then each sample solution was diluted in the HPLC method diluent used in Example 4, Table 6 and mixed well. For retention time verification purposes, a reference sample solution was also prepared using a carbachol/brimonidine six month accelerated stability sample (Table 8). The brimonidine tartrate analytical concentration for all of the degraded and the reference sample solutions was 0.1 mg/mL.
All of the sample solutions prepared as described in Table 9 were analyzed per the HPLC-PDA method shown in Example 4, Table 6. […] The level of the impurity present in both base-stressed samples is about 0.02% relative to that of the brimonidine peak. The extracted UV spectra for the RRT 0.91 impurity from the carbachol/brimonidine formulation (6 month accelerated stability sample) and the two base-stressed samples are similar for each.
The Phase I forced degradation study confirmed that the RRT 0.91 impurity was formed when the two APIs together were stressed under basic (either 0.1 M NaOH or 1 M NaOH) conditions and at room temperatures. To study temperature impact on the reaction, the two APIs, brimonidine tartrate and carbachol, were combined and stressed under both base and heat (45° C.) conditions simultaneously.
Additionally, to further confirm that the presence of both APIs was needed for the formation of the RRT 0.91 peak, individual API samples were also stressed in the same way. […] After the stress treatment was completed, all samples (H-M) were removed from condition, allowed to cool to room temperatures, neutralized where appropriate, and brought to a similar concentration level. The samples were capped and shaken until all the materials in each flask were dissolved. Then each sample solution was diluted in the HPLC method diluent (Example 4, Table 6) and mixed well.
All the base and heat-stressed sample solutions prepared as described in Table 10 were analyzed by LC-PDA analysis per the method shown in Example 4, Table 6. […] This further confirmed that the RRT 0.91 impurity was a reaction product of the two APIs.

impurity B level relative to the brimonidine peak area ([1]; 0.1 M NaOH and heat-stressed combined API sample)	impurity B level ([1]; other base-stressed combined APIs)	Relative % Peak Area for RRT 0.91 Impurity (Versus Peak Area of Brimonidine) ([2]; 0.1M NaOH, 45° C.) [%]	Relative % Peak Area for RRT 0.91 Impurity (Versus Peak Area of Brimonidine) ([2]; 0.1M NaOH, room temperature) [%]	Relative % Peak Area for RRT 0.91 Impurity (Versus Peak Area of Brimonidine) ([2]; 0.1M NaOH, room temperature, listed as RRT 0.91 impurity)	Relative % Peak Area for RRT 0.91 Impurity (Versus Peak Area of Brimonidine) ([2]; 1M NaOH, 45° C.) [%]	Relative % Peak Area for RRT 0.91 Impurity (Versus Peak Area of Brimonidine) ([2]; 1M NaOH, room temperature) [%]	Relative % Peak Area for RRT 0.91 Impurity (Versus Peak Area of Brimonidine) ([2]; 1M NaOH, room temperature, listed as RRT 0.91 impurity)	Structure (SMILES)
~ 0.05%	very low levels							NC(=O)NCCNC(=O)Nc1ccc2nccnc2c1Br [Impurity B, 1-(5-bromoquinoxalin-6-yl)-3-(2-ureidoethyl)urea]
		0.15	0.02	about 0.02%	0.03	0.02	about 0.02%	NC(=O)N1CCN=C1Nc1ccc2nccnc2c1Br [RRT 0.91 Impurity, 2-((5-bromoquinoxalin-6-yl)amino)-4,5-dihydro-1H-imidazole-1-carboxamide]
